Assay results as given in patent publication US11779550B2, “Bisphenol ether derivatives and methods for using the same” (THE UNIVERSITY OF BRITISH COLUMBIA, priority 2015, dated 2023).
Read-outs that look alike come from different tables or passages of the source.

Molecular target: T1, androgen receptor (AR) (Homo sapiens, UniProt P10275, T878A)
T1 construct: endogenous in cells; host or cells: LNCaP
T1 sequence (P10275 1-920 T878A): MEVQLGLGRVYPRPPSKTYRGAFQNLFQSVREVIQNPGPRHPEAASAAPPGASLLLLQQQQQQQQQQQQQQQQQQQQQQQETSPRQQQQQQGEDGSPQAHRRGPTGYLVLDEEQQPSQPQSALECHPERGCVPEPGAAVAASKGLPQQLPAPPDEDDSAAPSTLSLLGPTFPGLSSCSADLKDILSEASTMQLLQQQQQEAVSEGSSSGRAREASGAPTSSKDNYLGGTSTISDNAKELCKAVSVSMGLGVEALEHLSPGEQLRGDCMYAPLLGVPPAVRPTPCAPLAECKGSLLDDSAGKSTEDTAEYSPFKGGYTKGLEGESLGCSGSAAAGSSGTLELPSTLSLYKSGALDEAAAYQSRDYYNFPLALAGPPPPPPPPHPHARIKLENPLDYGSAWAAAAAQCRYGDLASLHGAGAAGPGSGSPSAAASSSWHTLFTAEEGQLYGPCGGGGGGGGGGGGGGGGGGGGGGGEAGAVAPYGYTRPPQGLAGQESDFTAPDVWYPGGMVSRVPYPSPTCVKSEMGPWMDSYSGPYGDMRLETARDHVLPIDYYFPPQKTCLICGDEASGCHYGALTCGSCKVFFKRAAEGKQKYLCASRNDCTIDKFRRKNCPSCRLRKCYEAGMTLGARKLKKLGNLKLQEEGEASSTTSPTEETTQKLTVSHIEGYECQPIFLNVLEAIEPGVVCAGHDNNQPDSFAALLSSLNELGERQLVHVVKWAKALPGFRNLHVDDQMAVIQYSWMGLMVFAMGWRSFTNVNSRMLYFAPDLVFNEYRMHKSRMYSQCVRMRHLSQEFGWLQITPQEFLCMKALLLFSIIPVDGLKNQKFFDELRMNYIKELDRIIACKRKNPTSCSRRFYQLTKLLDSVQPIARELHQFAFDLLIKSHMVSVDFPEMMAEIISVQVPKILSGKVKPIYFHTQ
Assay: PSA (6.1 kb)-luciferase reporter assay in LNCaP cells induced with R1881
Type: cell-based
Settings: LNCaP cells transfected with PSA (6.1 kb)-luciferase, 1 h pre-treatment, R1881 (1 nM) 24 h
Method: LNCaP cells were transiently transfected with PSA (6.1 kb)-luciferase for 24 h prior to pre-treatment with compounds of the invention (e.g., Compound 1c) ranging in concentration from 62.5 ng/ml to 1.5 ug/ml for 1 hour before the addition of vehicle, or synthetic androgen, R1881 (1 nM) to induce luciferase production. After 24 h of incubation with R1881, the cells were harvested, and relative luciferase activities were determined. To determine the IC50, treatments were normalized to the predicted maximal activity induction (in the absence of test compounds, vehicle only).

With `CC(C)(c1ccc(OC[C@H](O)CO)cc1)c1ccc(OC[C@@H](Cl)CO)cc1` [Compound 1c, (R)-3-(4-(2-(4-((S)-2-chloro-3-hydroxypropoxy)phenyl)propan-2-yl)phenoxy)propane-1,2-diol] the IC50 (Trial 1, read-out: IC50, Trial 1) was 14 µM, the IC50 (Trial 2, read-out: IC50, Trial 2) was 19.4 µM and the IC50 (Trial 3, read-out: IC50, Trial 3) was 17 µM. The IC50 (Trial 4, read-out: IC50, Trial 4) was 15.8 µM and the IC50 (average of trials, read-out: Average IC50) was 16.7 ± 2.68 µM.
